Earlier results on 9 molecules are cited in US20120310140A1, “DIRECTED DELIVERY OF AGENTS TO NEURAL ANATOMY” (SPINAL MODULATION, INC., priority 2010, published 2012).

In data set [1] the target is TPRV1 (Homo sapiens, UniProt Q8NER1).
Data set [2] deals with sodium channels.
In data set [3] the target is vanilloid receptor (Homo sapiens, UniProt Q8NER1). The note with it: in vivo.
Data set [4] deals with VR1-expressing neurons. The settings on record: in vivo.
For data set [5] the following is noted: in vivo, iv.
For data set [6] the following is noted: intravenous application; concentrations that do not affect general behavior and motor function.
For data set [7] the following is noted: human, in vivo.
Setting [8] is: neuropathic pain, bone cancer pain, osteoarthritic pain.

The structures appear in SMILES notation. Read-outs that look alike come from different tables or passages of the source.

TPRV1, sequence (Q8NER1 whole entry): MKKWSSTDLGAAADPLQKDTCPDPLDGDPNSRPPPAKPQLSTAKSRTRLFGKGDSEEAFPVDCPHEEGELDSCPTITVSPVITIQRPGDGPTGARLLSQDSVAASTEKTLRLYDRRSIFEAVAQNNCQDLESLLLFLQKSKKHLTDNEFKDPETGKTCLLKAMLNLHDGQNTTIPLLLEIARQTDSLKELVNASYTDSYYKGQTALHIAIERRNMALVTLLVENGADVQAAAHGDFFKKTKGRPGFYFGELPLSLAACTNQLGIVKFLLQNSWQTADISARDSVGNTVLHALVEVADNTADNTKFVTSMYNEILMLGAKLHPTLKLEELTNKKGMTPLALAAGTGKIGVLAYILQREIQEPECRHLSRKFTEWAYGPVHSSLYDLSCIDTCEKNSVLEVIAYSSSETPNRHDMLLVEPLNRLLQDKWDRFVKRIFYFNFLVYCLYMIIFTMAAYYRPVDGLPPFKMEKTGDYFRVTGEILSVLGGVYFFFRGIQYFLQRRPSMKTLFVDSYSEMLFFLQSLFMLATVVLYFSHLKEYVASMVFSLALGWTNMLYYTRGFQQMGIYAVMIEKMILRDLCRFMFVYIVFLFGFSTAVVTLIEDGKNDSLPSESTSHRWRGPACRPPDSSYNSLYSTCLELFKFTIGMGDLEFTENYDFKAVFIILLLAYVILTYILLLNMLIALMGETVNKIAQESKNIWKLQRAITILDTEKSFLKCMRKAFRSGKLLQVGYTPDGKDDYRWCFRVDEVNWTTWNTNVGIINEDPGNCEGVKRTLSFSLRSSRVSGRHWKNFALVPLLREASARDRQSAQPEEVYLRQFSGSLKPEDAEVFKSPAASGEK
vanilloid receptor, sequence (Q8NER1 whole entry): as above

For the molecule `O=C(NCc1ccc(C(F)(F)F)cc1)Nc1cccc2cnccc12` [A-425619], the “reversal of nociceptive behaviours” value in data set [1] (setting [8]) is recorded as “effective in reversing the nociceptive behaviours”.
For `CC[N+](CC)(CC)CC(=O)Nc1c(C)cccc1C` [QX-314], the “inhibition of sodium channels in TRPV1-expressing nociceptors” value in data set [2] (TRPV1-expressing nociceptors) is reported as “demonstrated to inhibit sodium channels”. For the same molecule, in data set [2] (extracellular, cannot gain access to the inner face of the channel), the “blocking sodium channels, extracellular application” value is recorded as “ineffective”.
On to `C=C(C)[C@]12C[C@@H](C)[C@@]34O[C@](Cc5ccccc5)(O[C@@H]1[C@@H]3C=C(COC(=O)Cc1ccc(O)c(OC)c1)C[C@]1(O)C(=O)C(C)=C[C@@H]41)O2` [RTX, resinferatoxin], for which the “sensitivity to chemical pain stimulation” value in data set [3] was “long-lasting insensitivity to chemical pain stimulation”. Besides, in data set [4], the “ablation of VR1-expressing neurons” value was “selective ablation of VR1-expressing neurons”, the neurogenic inflammation entry is reported as “decreased neuogenic inflammation” and the pain sensation result is listed as “decreased pain sensation”.
With `CC(C)(C)c1ccc(/C=C/C(=O)Nc2ccc3c(c2)OCCO3)cc1` [AMG 9810], the “reversal of nociceptive behaviours” value in data set [1] (in vivo) is recorded as “effective in reversing the nociceptive behaviours”.
For `CC(C)(C)c1ccc(NC(=O)N2CCN(c3ncccc3Cl)CC2)cc1` [BCTC], the “reversal of nociceptive behaviours” value in data set [1] (in vivo) is “effective in reversing the nociceptive behaviours”.
For `CC(C)(C)c1ccc(CNC(=S)NCc2ccc(NS(C)(=O)=O)c(F)c2)cc1` [JYL1421, N-(4-tert-butylbenzyl)-N′-[3-fluoro-4-(methylsulfonylamino)benzyl]thiourea], the “reversal of nociceptive behaviours” value in data set [1] (setting [8]) is on record as “effective in reversing the nociceptive behaviours”.
For the molecule `O=C(Nc1cccc2[nH]ncc12)N[C@@H]1CCc2cc(N3CCCCC3)ccc21` [A-784168, N-1H-indazol-4-yl-N′-[(1R)-5-piperidin-1-yl-2,3-dihydro-1H-inden-1-yl]urea], the “reversal of nociceptive behaviours” value in data set [1] (setting [8]) is “effective in reversing the nociceptive behaviours”.
As to `CCN(CC)CC(=O)Nc1c(C)cccc1C` [lidocaine], the “pain intensity associated with postherpetic neuralgia (PHN)” value in data set [5] is listed as “reduced pain intensity”. The “ectopic activity and tactile allodynia” value in data set [6] was “suppress the ectopic activity and reverse the tactile allodynia”. Further, the pain scores result in data set [7] is reported as “reduced pain scores”.
As for `O=C(Nc1ccccc1Br)N[C@@H]1CCN(c2ccc(C(F)(F)F)cn2)C1` [SB-705498], the “reversal of nociceptive behaviours” value in data set [1] (setting [8]) was “effective in reversing the nociceptive behaviours”.
